Measurements reported in patent US20240316093A1, “NEPHROTOXICITY REDUCING AGENT” (NIPPON SHINYAKU CO., LTD., priority 2021, published 2024).

Tests used:
[1] = Precipitation suppressing effect of trehalose, absorbance at 620 nm in the presence of ions assumed to be in urine (Example 7); assay type: physicochemical; conditions: Example 7, PMO Nos. 1, 2, 7, 8; aqueous solution of trehalose versus water for injection; KCl and NaCl, 37° C.
Description: Each of the antisense oligomers was dissolved in water for injection or an aqueous solution of trehalose, and the mixture was then mixed with an aqueous solution comprising potassium chloride and sodium chloride assumed to be in urine. The absorbance at 620 nm of the solution thus mixed was measured using a plate reader, Infinite F200 Pro (manufactured by Tecan Group Ltd.) under the heating condition of 37° C. […] Accordingly, conditions were set under which the precipitation was observed using water for injection as a medium for each sequence. Another measurement was performed under the same conditions as obtained except that only the medium was changed to an aqueous solution of trehalose, and then the absorbance obtained under both the conditions was compared to each other. When the absorbance was increased, precipitation was determined to be observed, and a time until the precipitation was observed and the increased value of the absorbance were evaluated. When the aqueous solution of trehalose was used as the medium, it was determined that the precipitation suppressing effect was presented in a case where the time until the precipitation was observed was longer or in a case where the increased value of the absorbance was smaller than the case of using the water for injection as the medium.

C57BL/6J male mice [2] = experiment: BUN and Cre values in serum after tail-vein administration of PMO dosing solutions with or without sucrose or trehalose (Example 5); conditions: Example 5, PMO Nos. 1, 8 and 9 with sucrose or trehalose
Description: Also, the antisense oligomers of PMO Nos. 1, 8, and 9 were each dissolved in water for injection comprising 0.9% sodium chloride, and a solution obtained by dissolving trehalose (manufactured by FUJIFILM Wako Pure Chemical Corporation) with physiological saline was added thereto to prepare a dosing solution comprising each of the antisense oligomers and trehalose at the concentrations shown in Tables 15 to 17.
The obtained dosing solutions were administered into the tail vein of 6-week-old C57BL/6J male mice (N=2 to 3) at 20 mL/kg. Next day, serum was collected from the mice, and the blood urea nitrogen (BUN) values and blood creatinine (Cre) values were measured with the urease-GIDH method and the enzymatic method, respectively, using an automatic biochemical analyzer JCA-BM8060 (manufactured by JEOL Ltd.).

[3] = tested on: kidney of C57BL/6J male mice; conditions: mouse, in vivo
Description: The obtained dosing solutions were administered into the tail vein of 6-week-old C57BL/6J male mice (N=5) at 20 mL/kg. Next day, the mice were subjected to autopsy, and formalin-fixed paraffin-embedded samples of the respective kidneys were prepared. Sections obtained by slicing the samples were subjected to hematoxylin-eosin staining and a histopathological test of the sections was performed.

[4] = tested on: kidney of C57BL/6J male mice; experiment: Histopathological test of kidney (hematoxylin-eosin) after PMO No. 8 with or without sucrose (Example 2); conditions: Example 2, histopathological test, PMO No. 8 with sucrose
Description: (§1) The obtained dosing solutions were administered into the tail vein of 6-week-old C57BL/6J male mice (N=3) at 10 and 12 mL/kg. Next day, serum was collected from the mice, and the blood urea nitrogen (BUN) values and blood creatinine (Cre) values were measured with the urease-GIDH method and the enzymatic method, respectively, using an automatic biochemical analyzer JCA-BM8060 (manufactured by JEOL Ltd.). […] Sections obtained by slicing the samples were subjected to hematoxylin-eosin staining and a histopathological test of the sections was performed.

C57BL/6J male mice [5] = experiment: BUN and Cre values in serum after tail-vein administration of PMO dosing solutions with or without sucrose (Example 2); conditions: Example 2, PMO Nos. 8 and 9 with sucrose
Description: as §1

| Compound | Precipitation suppressing effect (time until the precipitation was observed, increase of the absorbance at 620 nm) [1] | Nephrotoxicity reducing effect (BUN values and Cre values versus dosing solution comprising neither sucrose nor trehalose) (C57BL/6J male mice [2]) | Nephrotoxicity reducing effect (toxicological findings on the histopathological test of the kidney) [3] | Amount of precipitates (basophilic substances in the lumens of renal tubules) [4] | Nephrotoxicity reducing effect (BUN values and Cre values versus control dosing solution comprising no sucrose) (C57BL/6J male mice [5]) |
| --- | --- | --- | --- | --- | --- |
| OC[C@H]1O[C@H](O[C@H]2O[C@H](CO)[C@@H](O)[C@H](O)[C@H]2O)[C@H](O)[C@@H](O)[C@@H]1O [trehalose] | suppress the precipitation of antisense oligomers | confirmed to reduce nephrotoxicity | – | – | – |
| OC[C@H]1O[C@@](CO)(O[C@H]2O[C@H](CO)[C@@H](O)[C@H](O)[C@H]2O)[C@@H](O)[C@@H]1O [sucrose] | – | confirmed to reduce nephrotoxicity | confirmed to reduce nephrotoxicity | amount of precipitates decreased according to the concentrations of sucrose | confirmed to reduce nephrotoxicity |
